Measurements: article PMC3125470 (Biochemistry, 2011)

Target: T1, MsPat (MSMEG_5458) (Mycolicibacterium smegmatis, UniProt A0R3F9)
T1 sequence (A0R3F9 1-333): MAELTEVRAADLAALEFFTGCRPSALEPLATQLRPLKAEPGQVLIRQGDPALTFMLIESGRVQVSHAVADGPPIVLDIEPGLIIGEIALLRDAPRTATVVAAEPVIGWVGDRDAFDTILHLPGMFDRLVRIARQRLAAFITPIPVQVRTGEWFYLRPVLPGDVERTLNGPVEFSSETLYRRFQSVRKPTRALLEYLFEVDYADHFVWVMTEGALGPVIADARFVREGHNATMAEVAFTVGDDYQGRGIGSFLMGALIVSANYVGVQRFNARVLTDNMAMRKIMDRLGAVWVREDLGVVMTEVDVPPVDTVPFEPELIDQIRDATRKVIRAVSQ
Experiment: fluorescent labeling of ACS and time-dependent ACS inactivation
Assay type: biochemical
Conditions: 1 mM cGMP in place of cAMP; weak activator, allosteric

For `Nc1nc2c(ncn2[C@@H]2O[C@@H]3COP(=O)(O)O[C@H]3[C@H]2O)c(=O)[nH]1` [cGMP], the “fluorescent labeling of ACS and time-dependent ACS inactivation” value was “Much weaker labeling of ACS was observed when cAMP was replaced with cGMP”.
